The test system of data set [1] is HaCaT cells. Nature of the data set: MTT cytotoxicity evaluation on skin keratinocytes. The following applies: HaCaT (skin stratum corneum cells), 0.1, 0.5, 1 and 5 ppm, 24 hours, at concentrations of 5 ppm or less. It counts as cell-based. The method, then:
(§1) Toxicity assessments of honokiol on skin epidermis and dermal cells were performed. Specifically, HaCaT cells, which are skin keratinocytes, and Hs68 cells, which are skin dermis cells, were cultured in a 96 well plate at a concentration of 2 X […] and cultured in a medium including FBS ([…]) and antibiotics (Antibiotic antibiotic) at 37°C and 5% CO2 for 24 hours, and then further cultured by treating the medium including only antibiotics with 0.1, 0.5, 1, and 5 ppm for each concentration on the next day. After 24 hours, the toxic concentration of the honokiol material on skin cells was determined by replacing it with medium containing MTT tetrazolum (Sigma-aldrich, St. Lous, USA) and by reacting at 37°C for 4 hours to evaluate the cellular metabolic activity.

Data set [2] concerns Hs68 cells. Nature of the data set: MTT cytotoxicity evaluation on skin dermis cells. The settings on record: Hs68 (skin dermis cells), 0.1, 0.5, 1 and 5 ppm, 24 hours, at concentrations of 5 ppm or less. The format is cell-based. The method, then:
as §1

The test system of data set [3] is COL1A1. Nature of the data set: qRT-PCR of collagen production promotion factor in UVB-irradiated Hs68 cells. The format is cell-based. The following applies: Hs68, UVB 25 mJ/cm^2, 1 ppm, 24 hours; relative to UVB non-irradiated group; compared with RA, EGCG, retinol. (In general: In qPCR the cycle at which signal appears reflects the starting amount.)
In data set [4] the test system is MMP-1. Nature of the data set: qRT-PCR of collagen degradation enzyme factor in UVB-irradiated Hs68 cells. The format is cell-based. The settings on record: Hs68, UVB 25 mJ/cm^2, 1 ppm, 24 hours; relative to UVB non-irradiated group. The protocol:
It was determined whether honokiol increases the amount of skin collagen. Specifically, Hs68 cells, which are skin dermal layer cells, were irradiated with 25 mJ/cm^2 intensity of UVB (ultraviolet B), and then treated with RA (retinoic acid), EGCG (epigallocatechin gallate), retinol, and honokiol at a concentration of 1 ppm for 24 hours, respectively.
The mRNA expression of the collagen production promotion factor COL1A1 and the collagen degradation enzyme factor MMP-1 gene was measured through qRT-PCR analysis and converted based on the actin expression, and the relative values for the expression of the UVB non-irradiated group were calculated and compared.
The collagen production amount was compared in the same manner as in Example 2-1, and the treatment sample was changed to a honokiol solution dissolved in RA (retinoic acid), retinol, DMSO (dimethyl sulfoxide), a honokiol solution dissolved in BG, and a honokiol solution dissolved in PG (propylene glycol).
In Example 2-1, a 5% (w/w) solution was prepared as a sample to confirm stability in a high concentration dissolved state, whereas a honokiol solution for treating cells was prepared at a concentration of 1 mg/ml, and the honokiol alone component treated in cells was performed to be 1 ppm.

Data set [5] relates to ELN1. The experiment in a line: qRT-PCR of elastin production factor in UVB-irradiated Hs68 cells. It counts as cell-based. The settings on record: Hs68, UVB 25 mJ/cm^2, 1 ppm, 24 hours; compared with RA, EGCG, retinol. The method, then:
(§2) Specifically, Hs68 cells, which are skin dermal layer cells, were irradiated with UVB (ultraviolet-B) having a 25 mJ/cm^2 intensity, and then treated with RA, EGCG, retinol, and honokiol, 1 ppm each, for 24 hours.
(§3) The mRNA expression levels of ELN1, a factor associated with elastin production promotion, and FBN, a factor associated with fibronectin production promotion, were then measured using qRT-PCR analysis, and the levels of actin expression from the UVB non-irradiated group were converted and compared.

Data set [6] relates to FBN. Nature of the data set: qRT-PCR of fibronectin production factor in UVB-irradiated Hs68 cells. It counts as cell-based. The following applies: Hs68, UVB 25 mJ/cm^2, 1 ppm, 24 hours; compared with RA, EGCG, retinol. The method, then: as §2, §3
The subject of data set [7] is AQP3. Nature of the data set: qRT-PCR of moisture migration factor in HaCaT cells. It counts as cell-based. The following applies: 24 hours. The method, then:
(§4) Specifically, HaCaT cells, which are skin stratum corneum cells, were treated with retinol and honokiol at 0.1 and 1 ppm, respectively, for 24 hours.
(§5) The mRNA expression levels of the AQP3 gene, which is a factor related to the migration of moisture present in the dermis, and the HAS3 gene, which is a factor related to hyaluronic acid synthase, were then measured through qRT-PCR analysis, and the β-actin expression levels were converted and compared.

In data set [8] the test system is HAS3. Nature of the data set: qRT-PCR of hyaluronic acid synthase factor in HaCaT cells. It counts as cell-based. The settings on record: 24 hours. The protocol: as §4, §5
Data set [9] relates to filaggrin (FLG). The experiment in a line: qRT-PCR of filaggrin in HaCaT cells. It counts as cell-based. The following applies: 24 hours. The method, then: as §4
(§6) Subsequently, through qRT-PCR analysis, the mRNA expression of filaggrin (FLG), a moisturizing component-related factor present in keratinocytes constituting the skin barrier, and the CLDN1 gene, a factor related to the binding of the skin barrier, were measured and compared based on the β-actin expression level.

The test system of data set [10] is CLDN1. Nature of the data set: qRT-PCR of skin barrier binding factor in HaCaT cells. The settings on record: 1 ppm, 24 hours, versus control group. It counts as cell-based. The method, then:
as §4, §6

Data set [11] deals with TSLP. Nature of the data set: qRT-PCR of inflammation-related factor in Poly I:C/IL-4 stimulated HaCaT cells. It counts as cell-based. The settings on record: 10 µg/ml Poly I:C and 10 µg/ml IL-4, 1 ppm, 4 hours. The protocol: Specifically, HaCaT cells, which are skin stratum corneum cells, were treated (+) with 10 µg/ml of Poly I:C and 10 µg/ml of IL-4 protein, which are inflammatory response inducing substances, and prepared as an experimental group in which 1 µM (Dexa) of dexamethasone (DEXA), retinol, and honokiol, which are […], were treated for 4 hours at 0.1 and 1 ppm, respectively. The untreated group (-) was prepared as a negative control.
Afterwards, the expression level of the TSLP gene, an inflammation-related factor expressed in skin keratinocytes, was measured through qRT-PCR analysis, converted based on the expression level of ectin, and compared.

The nature of data set [12]: DPPH test of antioxidant activity. The following applies: 10 and 100 ppm, room temperature, 30 minutes; compared to retinol. The format is biochemical. The method, then: It was confirmed by the DPPH test whether honokiol exerts antioxidant activity.
Specifically, the DPPH solution was treated with Ascorbic Acid (AA), retinol, and honokiol at 10 and 100 ppm, respectively, at room temperature for 30 minutes. The absorbance was measured at 517 nm to show antioxidant activity as the ratio of the decrease in absorbance to the control. At this time, ascorbic acid, an antioxidant, was used as a control group for determining the absorbance reduction ratio.

Data set [13] is described as follows: Solvent selection: dissolving 5 wt % honokiol in water, BG, MCT. It counts as physicochemical. An excerpt:
Honokiol is a poorly soluble component and has low solubility in water, so it has the property of being dissolved in an organic solvent. To stabilize the cosmetic composition including honokiol at a high concentration of 5 wt %, three types of solvents corresponding to water, Butylene Glycol (BG), and medium-chain triglyceride (MCT) oil were applied to confirm the result.

Data set [14] is described as follows: HPLC potency analysis after storage. It counts as physicochemical. The settings on record: harsh environments of low temperature, high temperature, and cycle. The protocol: Honokiol was dissolved in BG and MCT at a concentration of 5 wt %, and high-performance liquid chromatography (HPLC) was performed to observe whether precipitates were formed at 4°C, 25°C, 45°C, 50°C, and sunlight, and to analyze potency.

Where [15] appears, read: 0.1 and 1 ppm, overall versus retinol.

Molecules are shown by their SMILES.

As for `C=CCc1ccc(O)c(-c2ccc(O)c(CC=C)c2)c1` [honokiol], the cytotoxicity entry in data set [1] and in [2] was “did not cause cytotoxicity” each time. The “COL1A1 mRNA expression (collagen production)” value in data set [3] is “higher collagen production than the UVB-only irradiated group, and showed the highest collagen production among all UVB irradiated groups”. In addition, the “MMP-1 mRNA expression (collagen degrading enzyme production)” value in data set [4] was “lower amount of collagen degrading enzyme production than the UVB-only irradiation group”. In addition, the “ELN1 mRNA expression level” value in [5] is reported as “highest expression level among the UV-irradiated groups but also showed a higher expression level than the UV-unirradiated group”. Moreover, in data set [6], the “FBN mRNA expression level” value is reported as “highest expression level among the UV-irradiated groups but also showed a higher expression level than the UV-unirradiated group”. The “AQP3 mRNA expression level” value is “higher overall expression than the retinol-treated group” in [7] (setting [15]) and “significantly increased the expression of related genes” in data set [7] (1 ppm). Moreover, the “HAS3 mRNA expression level” value is given as “higher overall expression than the retinol-treated group” in data set [8] (setting [15]) and “significantly increased the expression of related genes” in [8] (1 ppm). For the same compound, the “FLG mRNA expression” value in data set [9] (setting [15]) was “higher expression than the retinol-treated group overall”; in [9] (1 ppm), “significantly increased the expression of the FLG gene”. The “CLDN1 mRNA expression level” value in data set [10] is “significantly increased the expression level of the CLDN1 gene compared to that of the control group”. Moreover, in data set [11], the “TSLP gene expression amount” value is reported as “significantly reducing the expression amount of the TSLP gene”. In addition, the “antioxidant activity (DPPH, decrease in absorbance at 517 nm)” value in data set [12] was “remarkably high antioxidant activity compared to retinol”. The solubility entry in data set [13] (5 wt % honokiol in BG) is listed as “well soluble”; in [13] (5 wt % honokiol in MCT), “well soluble”; in data set [13] (5 wt % honokiol in water), “low”. For the same compound, the “potency maintenance (stability of the material)” value in data set [14] is “maintained its potency well”.

For the origin of these results see patent publication EP4740932A2, “COSMETIC COMPOSITION FOR SKIN IMPROVEMENT AND PHARMACEUTICAL COMPOSITION FOR PREVENTING OR TREATING SKIN DAMAGE, EACH CONTAINING HONOKIOL AND POLYOL” (Cosmax, Inc., priority 2023, dated 2025).
